# Reference: ChEMBL document CHEMBL1201861, “Genomics of Drug Sensitity in Cancer screening data, Wellcome Trust Sanger Institute”
# Experiments:
# Experiment in all cases: cells
# [1] = test system: COLO-829; format: functional, cell-based, Homo sapiens; details: Homo sapiens, COLO-829
# Description: SANGER: Inhibition of human COLO-829 cell growth in a cell viability assay.
# [2] = test system: CW-2; format: functional, cell-based, Homo sapiens; details: Homo sapiens, CW-2;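 note: growth inhibition of CW-2 cells, read out by a cell viability assay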
# Description: SANGER: Inhibition of human CW-2 cell growth in a cell viability assay.
# [3] = test system: D283 Med; format: functional, cell-based, Homo sapiens; details: Homo sapiens, D283 Med
# Description: SANGER: Inhibition of human D-283MED cell growth in a cell viability assay.
# [4] = test system: DEL; format: functional, cell-based, Homo sapiens; details: Homo sapiens, DEL;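 note: growth inhibition of the human DEL cell line, read out with a cell viability assay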
# Description: SANGER: Inhibition of human DEL cell growth in a cell viability assay.
# [5] = test system: EKVX; format: functional, cell-based, Homo sapiens; details: Homo sapiens, EKVX;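 note: growth inhibition of human EKVX cells, read out with a cell viability assay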
# Description: SANGER: Inhibition of human EKVX cell growth in a cell viability assay.
# [6] = test system: GI-ME-N; format: functional, cell-based, Homo sapiens; details: Homo sapiens, GI-ME-N;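 note: growth inhibition of human GI-ME-N cells, read out with a cell viability assay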
# Description: SANGER: Inhibition of human GI-ME-N cell growth in a cell viability assay.
# [7] = test system: GR-ST; format: functional, cell-based, Homo sapiens; details: Homo sapiens, GR-ST
# Description: SANGER: Inhibition of human GR-ST cell growth in a cell viability assay.
# [8] = test system: HCC1187; format: functional, cell-based, Homo sapiens; details: Homo sapiens, HCC1187;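 note: growth inhibition of HCC1187 cells, read out with a cell viability assay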
# [9] = test system: HD-MY-Z; format: functional, cell-based, Homo sapiens; details: Homo sapiens, HD-MY-Z;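 note: growth inhibition of HD-MY-Z cells, read out with a cell viability assay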
# Description: SANGER: Inhibition of human HD-MY-Z cell growth in a cell viability assay.
# [10] = test system: HL-60; format: functional, cell-based, Homo sapiens; details: Homo sapiens, HL-60;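 note: growth inhibition of human HL-60 cells, read out with a cell viability assay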
# Description: SANGER: Inhibition of human HL-60 cell growth in a cell viability assay.
# [11] = test system: HT-144; format: functional, cell-based, Homo sapiens; details: Homo sapiens, HT-144
# Description: SANGER: Inhibition of human HT-144 cell growth in a cell viability assay.
# [12] = test system: J-RT3-T3-5; format: functional, cell-based, Homo sapiens; details: Homo sapiens, J-RT3-T3-5;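 note: cell viability assay measuring growth inhibition of human J-RT3-T3-5 cells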
# [13] = test system: K5; format: functional, cell-based, Homo sapiens; details: Homo sapiens, K5
# Description: SANGER: Inhibition of human K5 cell growth in a cell viability assay.
# [14] = test system: KALS-1; format: functional, cell-based, Homo sapiens; details: Homo sapiens, KALS-1;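 note: growth inhibition of KALS-1 cells, determined with a cell viability assay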
# Description: SANGER: Inhibition of human KALS-1 cell growth in a cell viability assay.
# [15] = test system: KG-1; format: functional, cell-based, Homo sapiens; details: Homo sapiens, KG-1;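 note: growth inhibition of KG-1 cells, read out by a cell viability assay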
# Description: SANGER: Inhibition of human KG-1 cell growth in a cell viability assay.
# [16] = test system: KM12; format: functional, cell-based, Homo sapiens; details: Homo sapiens, KM12;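 note: KM12 cell growth inhibition, read out with a cell viability assay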
# Description: SANGER: Inhibition of human KM12 cell growth in a cell viability assay.
# [17] = test system: KNS-81-FD; format: functional, cell-based, Homo sapiens; details: Homo sapiens, KNS-81-FD;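 note: growth inhibition of KNS-81-FD cells, read out with a cell viability assay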
# Description: SANGER: Inhibition of human KNS-81-FD cell growth in a cell viability assay.
# [18] = test system: KP-N-YS; format: functional, cell-based, Homo sapiens; details: Homo sapiens, KP-N-YS;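 note: cell viability assay measuring inhibition of cell line growth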
# Description: SANGER: Inhibition of human KP-N-YS cell growth in a cell viability assay.
# [19] = test system: LB831-BLC; format: functional, cell-based, Homo sapiens; details: Homo sapiens, LB831-BLC;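 note: growth inhibition of LB831-BLC cells, read out with a cell viability assay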
# Description: SANGER: Inhibition of human LB831-BLC cell growth in a cell viability assay.
# [20] = test system: LB996-RCC; format: functional, cell-based, Homo sapiens; details: Homo sapiens, LB996-RCC
# Description: SANGER: Inhibition of human LB996-RCC cell growth in a cell viability assay.
# [21] = test system: LS-1034; format: functional, cell-based, Homo sapiens; details: Homo sapiens, LS-1034
# Description: SANGER: Inhibition of human LS-1034 cell growth in a cell viability assay.
# [22] = test system: Lu-65; format: functional, cell-based, Homo sapiens; details: Homo sapiens, Lu-65;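 note: growth inhibition of Lu-65 cancer cells, read out by a cell viability assay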
# Description: SANGER: Inhibition of human LU-65 cell growth in a cell viability assay.
# [23] = test system: LXF-289 cell line; format: functional, cell-based; details: Homo sapiens
# Description: SANGER: Inhibition of human LXF-289 cell growth in a cell viability assay.
# [24] = test system: MEG-01; format: functional, cell-based, Homo sapiens; details: Homo sapiens, MEG-01;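 note: growth inhibition of MEG-01 cells, read out by a cell viability assay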
# Description: SANGER: Inhibition of human MEG-01 cell growth in a cell viability assay.
# [25] = test system: MHH-NB-11; format: functional, cell-based, Homo sapiens; details: Homo sapiens, MHH-NB-11;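 note: growth inhibition of human MHH-NB-11 cells, read out by a cell viability assay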
# Description: SANGER: Inhibition of human MHH-NB-11 cell growth in a cell viability assay.
# [26] = test system: MHH-PREB-1; format: functional, cell-based, Homo sapiens; details: Homo sapiens, MHH-PREB-1;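 note: cell viability assay measuring inhibition of proliferation of human MHH-PREB-1 cells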
# Description: SANGER: Inhibition of human MHH-PREB-1 cell growth in a cell viability assay.
# [27] = test system: MOLT-4; format: functional, cell-based, Homo sapiens; details: Homo sapiens, MOLT-4;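 note: growth inhibition of MOLT-4 cells, determined with a cell viability readout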
# [28] = test system: MV4-11; format: functional, cell-based, Homo sapiens, MV-4-11; details: Homo sapiens, MV4-11;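 note: cell viability readout measuring growth inhibition of human MV-4-11 cells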
# Description: SANGER: Inhibition of human MV-4-11 cell growth in a cell viability assay.
# [29] = test system: NCI-H1650; format: functional, cell-based, Homo sapiens; details: Homo sapiens, NCI-H1650;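 note: growth inhibition of human NCI-H1650 cells measured by a cell viability assay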
# Description: SANGER: Inhibition of human NCI-H1650 cell growth in a cell viability assay.
# [30] = test system: NCI-H23; format: functional, cell-based, Homo sapiens; details: Homo sapiens, NCI-H23;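 note: cell viability assay measuring growth inhibition of NCI-H23 cells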
# Description: SANGER: Inhibition of human NCI-H23 cell growth in a cell viability assay.
# [31] = test system: NCI-H720; format: functional, cell-based, Homo sapiens; details: Homo sapiens, NCI-H720;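 note: growth inhibition of human NCI-H720 cells determined by a cell viability assay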
# Description: SANGER: Inhibition of human NCI-H720 cell growth in a cell viability assay.
# [32] = test system: NEC8; format: functional, cell-based, Homo sapiens; details: Homo sapiens, NEC8;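 note: growth inhibition of human NEC8 cells, read out by a cell viability assay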
# Description: SANGER: Inhibition of human NEC8 cell growth in a cell viability assay.
# [33] = test system: NH-12; format: functional, cell-based, Homo sapiens; details: Homo sapiens, NH-12;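 note: growth inhibition of NH-12 cells, read out with a cell viability assay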
# Description: SANGER: Inhibition of human NH-12 cell growth in a cell viability assay.
# [34] = test system: ONS-76; format: functional, cell-based, Homo sapiens; details: Homo sapiens, ONS-76;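 note: growth inhibition of human ONS-76 cells, read out with a cell viability assay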
# Description: SANGER: Inhibition of human ONS-76 cell growth in a cell viability assay.
# [35] = test system: PSN1; format: functional, cell-based, Homo sapiens; details: Homo sapiens, PSN1;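 note: suppression of growth of human PSN1 cells, read out by a cell viability assay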
# Description: SANGER: Inhibition of human PSN1 cell growth in a cell viability assay.
# [36] = test system: RCC10RGB; format: functional, cell-based, Homo sapiens; details: Homo sapiens, RCC10RGB;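 note: growth inhibition of human RCC10RGB cells, read out by a cell viability assay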
# Description: SANGER: Inhibition of human RCC10RGB cell growth in a cell viability assay.
# [37] = test system: RPMI-8226; format: functional, cell-based, Homo sapiens; details: Homo sapiens, RPMI-8226
# Description: SANGER: Inhibition of human RPMI-8226 cell growth in a cell viability assay.
# [38] = test system: SJSA-1; format: functional, cell-based, Homo sapiens; details: Homo sapiens, SJSA-1;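 note: growth inhibition of human SJSA-1 cells, read out through a cell viability measurement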
# Description: SANGER: Inhibition of human SJSA-1 cell growth in a cell viability assay.
# [39] = test system: SK-LMS-1; format: functional, cell-based, Homo sapiens; details: Homo sapiens, SK-LMS-1;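 note: growth inhibition of human SK-LMS-1 cells, read out with a cell viability assay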
# [40] = test system: SK-N-DZ; format: functional, cell-based, Homo sapiens; details: Homo sapiens, SK-N-DZ;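 note: growth inhibition of the cancer cell line, read out through a viability assay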
# Description: SANGER: Inhibition of human SK-N-DZ cell growth in a cell viability assay.
# [41] = test system: SK-PN-DW; format: functional, cell-based, Homo sapiens; details: Homo sapiens, SK-PN-DW;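 note: growth inhibition measured with a viability assay on these cells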
# Description: SANGER: Inhibition of human SK-PN-DW cell growth in a cell viability assay.
# [42] = test system: A253 cell line; format: functional, cell-based, Homo sapiens; details: Homo sapiens, A253;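 note: growth inhibition of A253 cells, read out with a cell viability assay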
# Description: SANGER: Inhibition of human A253 cell growth in a cell viability assay.
# [43] = test system: AM-38; format: functional, cell-based, Homo sapiens; details: Homo sapiens, AM-38;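 note: growth inhibition of AM-38 cells of human origin, read out by a cell viability assay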
# Description: SANGER: Inhibition of human AM-38 cell growth in a cell viability assay.
# [44] = test system: BB49-HNC; format: functional, cell-based, Homo sapiens; details: Homo sapiens, BB49-HNC;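 note: cell viability assay read-out, reported as inhibition of BB49-HNC cell growth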
# Description: SANGER: Inhibition of human BB49-HNC cell growth in a cell viability assay.
# [45] = test system: TE-10; format: functional, cell-based, Homo sapiens; details: Homo sapiens, TE-10;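 note: growth inhibition of TE-10 cells, measured by a cell viability assay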
# Description: SANGER: Inhibition of human TE-10 cell growth in a cell viability assay.
# [46] = test system: U-87 MG; format: functional, cell-based, Homo sapiens, U-87MG ATCC; details: Homo sapiens, U-87 MG;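 note: growth inhibition of the cells measured with a viability assay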
# Description: SANGER: Inhibition of human U-87-MG cell growth in a cell viability assay.
# [47] = test system: UACC-257; format: functional, cell-based, Homo sapiens; details: Homo sapiens, UACC-257
# Description: SANGER: Inhibition of human UACC-257 cell growth in a cell viability assay.
# [48] = test system: CCRF-CEM; format: functional, cell-based, Homo sapiens; details: Homo sapiens, CCRF-CEM;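 note: inhibition of CCRF-CEM cell growth, measured by a cell viability assay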
# Description: SANGER: Inhibition of human CCRF-CEM cell growth in a cell viability assay.
smiles,measurement,setting,value
C/C(=C\c1csc(C)n1)[C@@H]1C[C@@H]2O[C@]2(C)CCC[C@H](C)[C@H](O)[C@@H](C)C(=O)C(C)(C)[C@@H](O)CC(=O)O1 [PATUPILONE],IC50,[1],> 32 nM
same,IC50,[2],> 32 nM
same,IC50,[3],> 32 nM
same,IC50,[4],4.29 nM
same,IC50,[5],> 32 nM
same,IC50,[6],6.08 nM
same,IC50,[7],3.91 nM
same,IC50,[8],22.6 nM
same,IC50,[9],23.3 nM
same,IC50,[10],5 nM
same,IC50,[11],1.72 nM
same,IC50,[12],13.5 nM
same,IC50,[13],5.59 nM
same,IC50,[14]; read-out: IC50,3.19 nM
same,IC50,[15],5.1 nM
same,IC50,[16],2.24 nM
same,IC50,[17],> 32 nM
same,IC50,[18],3.93 nM
same,IC50,[19],6.03 nM
same,IC50,[20],6.03 nM
same,IC50,[21],0.912 nM
same,IC50,[22],21 nM
same,IC50,[23],0.227 nM
same,IC50,[24],1.53 nM
same,IC50,[25],15.2 nM
same,IC50,[26],7.51 nM
same,IC50,[27],2.52 nM
same,IC50,[28],1.7 nM
same,IC50,[29],9.54 nM
same,IC50,[30],23.8 nM
same,IC50,[31],> 32 nM
same,IC50,[32],3.53 nM
same,IC50,[33],0.891 nM
same,IC50,[34],4.1 nM
same,IC50,[35],0.173 nM
same,IC50,[36],19.7 nM
same,IC50,[37],6.71 nM
same,IC50,[38],2.09 nM
same,IC50,[39],0.646 nM
same,IC50,[40]; read-out: IC50,7.59 nM
same,IC50,[41],1.06 nM
same,IC50,[42],10.3 nM
same,IC50,[43],7.56 nM
same,IC50,[44],> 32 nM
same,IC50,[45],0.719 nM
same,IC50,[46],21.8 nM
same,IC50,[47],29.7 nM
same,IC50,[48],2.94 nM
Cc1ccc(NC(=O)c2ccc(CN3CCN(C)CC3)cc2)cc1Nc1nccc(-c2cccnc2)n1 [IMATINIB],IC50,[1],> 2000 nM
same,IC50,[2],> 2000 nM
same,IC50,[3],> 2000 nM
same,IC50,[4],> 2000 nM
same,IC50,[5],> 2000 nM
same,IC50,[6],> 2000 nM
same,IC50,[7],> 2000 nM
same,IC50,[8],> 2000 nM
same,IC50,[9],> 2000 nM
same,IC50,[10],> 2000 nM
same,IC50,[11],> 2000 nM
same,IC50,[12],> 2000 nM
same,IC50,[13],> 2000 nM
same,IC50,[14],> 2000 nM
same,IC50,[15],> 2000 nM
same,IC50,[16],> 2000 nM
same,IC50,[17],> 2000 nM
same,IC50,[18],> 2000 nM
same,IC50,[19],> 2000 nM
same,IC50,[20],> 2000 nM
same,IC50,[21],> 2000 nM
same,IC50,[22],> 2000 nM
same,IC50,[23],> 2000 nM
same,IC50,[24],89.2 nM
same,IC50,[25],> 2000 nM
same,IC50,[26],> 2000 nM
same,IC50,[27],> 2000 nM
same,IC50,[28],> 2000 nM
same,IC50,[30],> 2000 nM
same,IC50,[31],> 2000 nM
same,IC50,[32],> 2000 nM
same,IC50,[33],> 2000 nM
same,IC50,[34],> 2000 nM
same,IC50,[35],> 2000 nM
same,IC50,[36],> 2000 nM
same,IC50,[37],> 2000 nM
same,IC50,[38],> 2000 nM
same,IC50,[39],> 2000 nM
same,IC50,[40],> 2000 nM
same,IC50,[41],> 2000 nM
same,IC50,[42],> 2000 nM
same,IC50,[43],> 2000 nM
same,IC50,[44],> 2000 nM
same,IC50,[45],> 2000 nM
same,IC50,[46],> 2000 nM
same,IC50,[48],> 2000 nM
